Laboratory results as given in patent US11976074B1, “Crystalline salts of Linsitinib” (Sling Therapeutics, Inc., priority 2023, dated 2024).
“Also recorded” adds a separate entry of the source.

Key:
Format in all cases: physicochemical
[1] = Water activity slurries of Esylate 2 seeded with Esylate 1; conditions: for PXRD result of water activity slurry: seeded with Esylate 1
From the text: Water activity slurries were set-up with Esylate 2 and seeds of Esylate 1 to explore the presence of a potential hydrate and any associated critical water activity (Table 12). Four slurries were set-up in varying ratios of THF and H2O corresponding to 0.45, 0.63, 0.78 and 0.91 aw respectively.

[2] = DVS analysis (hygroscopicity) of Esylate 2
From the text: Esylate 2 appears to be a stable polymorph of the esylate salt of linsitinib. Esylate 2 was isolated from a wide range of techniques, solvents and temperatures, and a few samples were characterized further (Table 13). NMR analysis confirmed it to be a 1:1 linsitinib esylate salt. […] This was further supported by successful indexing of its PXRD pattern, whose calculated unit cell volume pointed to a 1:1 salt (Section 0).

[3] = Mechanical stress test (neat grinding/milling); conditions: milled neat at max power for 30 minutes
Protocol: (§1) A scale-up attempt for Esylate 2 was carried out towards the relative humidity stress test and the mechanical stress test.

[4] = 75% relative humidity stress test; conditions: 24 days, RT
Protocol: as §1

[5] = Equilibrium solubility in bio-relevant media (FaSSGF pH 1.6, FaSSIF pH 6.5)
[6] = Interconversion slurries of esylate forms; conditions: 4° C., RT, 60° C.; MEK and 2:1 EtOH:HEP
Protocol: To find the thermodynamically stable form of the mono-salt, interconversion slurries were set-up at three different temperatures in two different solvent systems between Esylates 1, 2, 3 and Esylate 4+Esylate 5 (Table 11). A sample of Esylate 4+Esylate 5 was included as part of the interconversion slurry in-spite of Esylate 4 being a solvate as Esylate 5 could not be isolated as a separate pure phase until the drying experiment was carried out on Esylate 4 towards the end of the study. Slurries were set-up at 4° C., RT and at 60° C. in MEK and 2:1 EtOH:HEP, resulting in a total of six experiments which were run for a total of 7 days.

[7] = pH-solubility of linsitinib free base and selected salts (pH 1.5 to 6.5, overnight equilibration, HPLC); conditions: for solubility: overnight equilibration; for Final pH: after overnight equilibration
[8] = Physical stability testing of Esylate 4 (elevated temperature vacuum drying); conditions: vacuum oven, 60° C., 18 hours
From the text: Esylate 4 was obtained from salt formation experiments using 1 Eq ESA at RT and ST in IPA and was further characterized using multiple techniques (Table 16).
Esylate 5 was initially only obtained in-tandem with Esylate 4 from slurries in several different solvent systems (FIG. 4). […] Due to the fact that the sample had been generated via drying at elevated temperature, the weight loss observed upon heating is likely due to surface or channel water absorbed during exposure to ambient conditions. […] Esylate 5 was not obtained from any of the interconversion slurries, indicating it is metastable under the conditions investigated (Table 18).

[9] = Thermogravimetric analysis (TGA); conditions: start to 83° C.
Protocol: The TG analysis was carried out using a TA Instruments […] Discovery Series instrument. The instrument balance was calibrated using class M weights and the temperature calibration was performed using alumel. The nitrogen purge was 10 mL per minute at the balance and 25 mL per minute at the furnace. The sample was placed into a pre-tared platinum pan and heated from approximately 25° C. to 300° C. at a rate of 10° C. per minute.

[10] = Differential scanning calorimetry (DSC); conditions: endotherms
Protocol: DSC analysis was carried out using a TA Instruments […] Discovery Series instrument. The instrument temperature calibrations were performed using indium. The DSC cell was kept under a nitrogen purge of 50 mL per minute during the analysis. The sample was placed in a standard, crimped aluminum pan and heated from approximately 25° C. to 300° C. at a rate of 10° C. per minute

[11] = Heating experiments with selected malate samples
Protocol: Based on the thermal data, Malate 4 and Malate 5 were heated at […] for 15 minutes. The solids were re-analyzed by PXRD after heating to investigate any form change upon dehydration. […] While there was an insufficient amount of sample to further characterize Malate 7, based on the conditions upon which it was generated, it could be a lower hydrate or an anhydrous form.

## CCS(=O)(=O)O.C[C@]1(O)C[C@@H](c2nc(-c3ccc4ccc(-c5ccccc5)nc4c3)c3c(N)nccn32)C1 [Esylate 2]
[1]; 93.1% THF in H2O, aw = 0.91, RT
  PXRD result of water activity slurry: Esylate 2
[1]; 94.7% THF in H2O, aw = 0.78, RT
  PXRD result of water activity slurry: Esylate 2
[1]; 96.2% THF in H2O, aw = 0.63, RT
  PXRD result of water activity slurry: Esylate 2
[1]; 97.6% THF in H2O, aw = 0.45, RT
  PXRD result of water activity slurry: Esylate 2
[1]; THF/H2O slurries at RT
  Critical water activity, if present: > 0.91 aw
[2]
  Hygroscopicity by DVS: slightly hygroscopic
  Net weight change after DVS analysis: no net weight change
  Weight gain and loss during the sorption and desorption cycles: 1%
[2]; 5-95% RH
  DVS sorption total weight gain: 5-95% RH: Total 33.1% weight gain
[2]; 35-75% RH
  DVS sorption weight gain: 35-75% RH: 12.0% weight gain
[2]; 75-35% RH
  DVS desorption weight loss: 75-35% RH: 12.3% weight loss
[2]; 75-95% RH
  DVS sorption weight gain: 75-95% RH: 16.9% weight gain
[2]; 95-5% RH
  DVS desorption total weight loss: 95-5% RH: Total 33.1% weight loss
[2]; 95-75% RH
  DVS desorption weight loss: 95-75% RH: 14.2% weight loss
[2]; above 85% RH
  Water up-take above 85% RH: ~0.8%
[2]; after sorption and desorption
  DVS net weight change: −0.04% weight loss
[3]
  PXRD result after grinding: poorly crystalline Esylate 2 along with amorphous residue
[4]
  PXRD result after 75% RH stress: no form change; also recorded: Esylate 2
  Weight gain by TGA after 75% RH stress: no weight gain
[5]; FaSSGF (pH 1.6)
  Final pH: 3.25
  solubility: 103.10 mg/mL
[5]; FaSSGF (pH 1.6), in words
  Solubility compared with the free base: highest solubility by a significant margin
[5]; FaSSIF (pH 6.5)
  Final pH: 3.72
  solubility: 1.62 mg/mL
[6]
  Relative stability of the form in interconversion slurries: most stable form
[7]; aqueous solution, pH 6, aqueous buffer, thermodynamic from solid, target pH 6.0, read-out: Solubility
  solubility: 0.7 mg/mL
[7]; between pH 3 and pH 4
  Solubility compared to the free base and other salts: highest solubility
[7]; lower pH (<3)
  Solubility compared with the free base or Phosphate 1: significantly higher solubility
[7]; target pH 1.5
  Final pH: 1.45
[7]; target pH 1.5, * = clear solution, not equilibrium value
  solubility: 106.19 mg/mL
[7]; target pH 2.0
  Final pH: 2.06
[7]; target pH 2.0, * = clear solution, not equilibrium value
  solubility: 97.33 mg/mL
[7]; target pH 2.5
  Final pH: 2.54
[7]; target pH 2.5, * = clear solution, not equilibrium value
  solubility: 71.00 mg/mL
[7]; target pH 3.0
  Final pH: 3.04
[7]; target pH 3.0, * = clear solution, not equilibrium value
  solubility: 73.90 mg/mL
[7]; target pH 3.5
  Final pH: 3.53
[7]; target pH 3.5, * = clear solution, not equilibrium value
  solubility: 38.04 mg/mL
[7]; target pH 4.0
  Final pH: 3.99
[7]; target pH 4.0, * = clear solution, not equilibrium value
  solubility: 39.56 mg/mL
[7]; target pH 4.5
  Final pH: 4.54
[7]; target pH 4.5, * = clear solution, not equilibrium value
  solubility: 18.90 mg/mL
[7]; target pH 5.0
  Final pH: 4.96
  solubility: 20.46 mg/mL
[7]; target pH 5.5
  Final pH: 5.48
[7]; target pH 6.0
  Final pH: 4.18
[7]; target pH 6.5
  Final pH: 4.34
  solubility: 0.002 mg/mL

## CCS(=O)(=O)O.C[C@]1(O)C[C@@H](c2nc(-c3ccc4ccc(-c5ccccc5)nc4c3)c3c(N)nccn32)C1 [Esylate 4]
[8]
  PXRD result after vacuum drying: form change into Esylate 5
[6]
  Relative stability of the form in interconversion slurries: metastable

## C[C@]1(O)C[C@@H](c2nc(-c3ccc4ccc(-c5ccccc5)nc4c3)c3c(N)nccn32)C1.O=C(O)C[C@H](O)C(=O)O [Malate 5]
[9]
  TGA Results (weight loss): 7.4%, start to 83 °C
[10]
  DSC Results, Endo: Endo: 109 °C
[11]; 92° C., 15 min
  XRPD result after heating: Malate 7 + pk
[11]; heated for 15 minutes
  Form change upon heating (PXRD): dehydrate to a new form, designated as Malate 7
